Measurements taken from patent US11628179B2, “Compounds for treating and preventing extracellular histone mediated pathologies” (priority 2017, dated 2023).
Values joined by “and” are separate entries in the source; they are usually repeats but may differ in a detail not shown here. Identical values can stand only once.

Assays:
[1] = Solubility in vehicle; format: physicochemical; conditions: in water/aqueous
Experimental: The STX studies described below were carried out inter alia to provide a preliminary understanding of the toxicity and PK profile of β-O-methyl cellobioside sulfate compounds such as mCBS.Na utilised in the present invention.

[2] = system: Sprague Dawley rats
Experimental: This study examined acute toxicity from single IV administration of mCBS in rats with doses up to 1000 mg/kg.
The acute toxicity of β-O-methyl cellobioside sulfate (mCBS) was assessed in Sprague Dawley rats following intravenous administration of a single bolus dose. A total of five groups of n=3 adult female rats were treated with 10, 30, 100, 300 and 1000 mg/kg doses of mCBS test item in the form of the sodium salt (mCBS.Na) in this dose range finding study. […] The rats were then observed for 7 days prior to termination without necropsy.

[3] = system: Sprague-Dawley rats; conditions: 5575 mg/kg/day of mCBS (free base), continuous IV infusion 7 days
Experimental: The objective of these studies was to determine the toxicity of the test item, mCBS, when administered by continuous (24 hours/day) intravenous infusion through a surgically implanted catheter for 7 consecutive days to Sprague-Dawley rats.
The test and control item dose formulations of mCBS (in the form of the heptasodium salt mCBS.Na) were administered to groups of rats by continuous (24 hours/day) intravenous infusion for 7 consecutive days as described in the Table 14 below.
Parameters monitored during this study included mortality, clinical observations, body weights and food consumption. In addition, hematology, coagulation and clinical chemistry parameters were evaluated on Day 9. Blood samples were collected from the animals at timepoints relative to the start of the infusion for analysis of test item concentration in plasma. At termination (Day 9), all animals were euthanized and subjected to a gross necropsy examination. Organ weights were measured on selected organs and a selected list of tissues, including gross lesions, were retained and prepared for microscopic evaluation.

[4] = system: human platelets; assay: Histone-induced platelet aggregation; format: cell-based; conditions: compounds added prior to histones 150 μg/mL
[5] = system: Human platelets in whole blood; assay: Histone-induced platelet degranulation (ATP release); format: cell-based; conditions: compounds added prior to histones 400 μg/mL
[6] = system: mice; assay: In-vivo histone toxicity assay, organ damage markers at 4 hr; design: species or system mouse; conditions: 6.25, 25 and 100 mg/kg i.p. 10 min prior to histones 50 mg/kg i.v.; blood at 4 hr
[7] = system: human liver microsomes; assay: Phase I metabolism in human liver microsomes; conditions: 1 μM, 1 h incubation, NADPH, 0.3 mg/ml microsomes
Experimental: (§1) A stock concentration of 25 μM mCBS dissolved in 50% methanol in water was added to the reaction tubes (10 μL). […] Samples were then vortex-mixed and centrifuged for 10 min at 14,000 rpm. Half of the samples (375 μl) were transferred to glass tubes and evaporated under a stream of nitrogen and at 37° C. Samples were then reconstituted in mobile phase A (250 μL). The final concentration of mCBS was 1 μM in the incubation medium.
(§2) The reaction mixtures were incubated for 1 hour with sampling in triplicate at 0, 15, 30, 45 and 60 min time points. A negative control (no NADPH) was used in parallel with the study samples. A positive control; midazolam, 25 μM (10 μL) was incubated in the same condition for 1 h. The final concentration of midazolam was 1 μM in the incubation medium

[8] = system: rat liver microsomes; assay: Phase I metabolism in rat liver microsomes; conditions: 1 μM, 1 h incubation, NADPH, 0.3 mg/ml microsomes
Experimental: as §1, §2

[9] = system: dog liver microsomes; assay: Phase I metabolism in dog liver microsomes; conditions: 1 μM, 1 h incubation, NADPH, 0.3 mg/ml microsomes
Experimental: as §1, §2

[10] = Stability of mCBS vs CBS in formulated clinical material (HPLC); format: physicochemical; conditions: formulated clinical material in phosphate buffer, 5±3° C., 25±2° C./60% RH, 40±2° C./75% RH
Experimental: Stability studies were carried out at 5±3° C., 25±2° C./60% RH and 40±2° C./75% RH ° C. conditions. Levels of both mCBS and cellobiose sulfate (CBS) were tracked in formulated clinical material (i.e. mCBS in phosphate buffer) via HPLC.

[11] = mCBS vs CBS levels in bulk powder stored at −20° C. (CAD); format: physicochemical
Experimental: Table 2b compares mCBS vs CBS levels in a representative batch of bulk powder when stored at −20° C. over 24 months. T is for time in months. T=0 or T0 represents analytical results carried out on completion of manufacture. Subsequent analysis indicated are relative to the initial analysis of the drug powder or formulation (e.g. […] Analytical method employing CAD (Charged Aerosol Detector) was used to measure the level of mCBS purity and its impurities and expressed as CAD %.

[12] = mCBS vs CBS levels in phosphate buffered pH 7.5 clinical trial formulation stored at 2-8° C. (CAD); format: physicochemical
[13] = system: human RBCs; assay: Histone-induced RBC aggregation (flow cytometry autofluorescence, SEM); format: cell-based; conditions: 0-200 μg/mL added prior to 400 μg/mL histones
[14] = system: human RBCs; assay: Histone-induced RBC fragility / lysis under shear; format: cell-based; conditions: 0-200 μg/mL prior to 400 μg/mL histones 60 min; 100 mm/s, 40× repetitions
[15] = Lipid bilayer assay (histone rupture of bilayers)
Experimental: Lipid bilayer assays. Artificial lipid bilayers, prepared as previously described (Rebbeck, R. T. et al. The beta (1a) subunit of the skeletal DHPR binds to skeletal RyR1 and activates the channel via its 35-residue C-terminal tail. Biophys J 100, 922-930, doi:10.1016/j.bpj.2011.01.022 (2011).), separated symmetrical 150 mM or 250 mM KCl (pH ˜5.5) solutions. Histones (1 μM, 15.2 μg ml^−1) were added to bilayers alone or after 0.5-3 h incubation with 10 μM CBS (3.5 μg ml^−1) or 10 μM MTS (5.1 μg ml^−1) at −20° C. Current was recorded continuously after histone addition until the bilayers broke or the experiment was terminated.
To examine this possibility artificial lipid bilayers were prepared and their susceptibility to histone rupture detected by changes in current across the bilayers.

[16] = system: Wistar rats; assay: Rat caecal ligation and puncture (CLP), severe sepsis; format: in vivo
Experimental: Rat caecal ligation and puncture (CLP) assay for sepsis. The CLP assay was performed in male Wistar rats as previously described (see Hubbard, W. J. et al. Cecal ligation and puncture. Shock 24 Suppl 1, 52-57 (2005).). Test compounds (50 mg kg^−1) dissolved in saline or an equivalent volume of saline only (Control cohort) were administered i.p. 5 min pre-CLP and 5, 10 and 15 h post-op until cessation of the experiment at 20 h. Sham-CLP rats underwent the same procedure, however, the caecum was not ligated or punctured and these rats received saline at the same times as above. At the conclusion of the experimental time period (20 h) or when morbidity required ethical euthanasia, the rats were anaesthetised and blood was collected via cardiac puncture into EDTA for subsequent analysis of liver (ALT) and kidney (creatinine) function by the Department of Pathology, The Canberra Hospital. The propensity for clots to form within the blood samples of the saline treated control CLP animals (despite the presence of EDTA) prevented successful analysis of plasma samples from all animals.

[17] = system: Wistar rats; assay: Rat cardiac IRI model; format: in vivo; conditions: 30 mg kg−1 into left ventricle 5 min prior to reperfusion
Experimental: Rat cardiac IRI model. […] Male Wistar rats were anaesthetised with isofluorane, intubated via tracheostomy and ventilated with a tidal volume of 1 ml 150 g^−1 and a respiratory rate of 65 breaths min^−1. Supplemental oxygen was delivered at a FiO2 of ˜30%. A left hemi-thoracotomy was performed to enable visualisation of the left ventricle. The left coronary arterial plexus (LCA) was occluded using an atraumatic snare for 30 min prior to reperfusion for 30 min. Ischemia was confirmed by myocardial hyperaemia. The test compounds (30 mg kg^−1) or an equivalent volume (200 μl) of saline were injected into the lumen of the left ventricle (confirmed with aspiration) 5 min prior to the release of the snare for the reperfusion phase.
At the conclusion of reperfusion (30 min), Thioflavin S (1 ml 200 g^−1 of body weight) was slowly injected into the lumen of the left ventricle, to define the territory of microvascular obstruction (MVO) within the ischemic zone (IZ). The IZ territory was determined by the re-occlusion of the atraumatic snare and infusion of blue microspheres into the left ventricle (Unisperse Blue, BASF), distributed within solutions via ultrasonication using a CD-6800 (Unisonics) sonicator. […] Planimetry (Image J, Freeware) was used to quantify the areas of the IZ, MVO and necrosis.

[18] = system: C57BL/6 mice; assay: Murine deep vein thrombosis (DVT) model, histone-mediated; format: in vivo, mouse; conditions: CBS 50 mg/kg i.v. 5 min after histones 10 mg/kg i.v., 48 h
Experimental: Murine deep vein thrombosis (DVT) model. The procedure used is largely as previously described (see Brill, A. et al. Neutrophil extracellular traps promote deep vein thrombosis in mice. J Thromb Haemost 10, 136-144, doi: 10.1111/j.1538-7836.2011.04544.x (2012)). […] The peritoneum and skin were closed following which all mice received an i.v. injection of histones via the tail vein (10 mg kg^−1) or an equivalent volume of saline followed 5 min later by an i.v. injection of test compounds (50 mg kg^−1) or saline. Mice were monitored for 48 h after which they were re-anesthetised, re-opened and any thrombi that had developed distal to the IVC stenosis were removed for analysis. Sham operated control animals received laparotomy and 90% ligation of the IVC, however the ligation was removed immediately after occlusion of the IVC.

[19] = system: whole blood coagulation; assay: ROTEM whole blood coagulation analysis (anticoagulant effect of compounds); conditions: NATEM assay, 50 and 100 μg/mL

Sodium β-O-Methyl Cellobioside Sulfate [mCBS.Na]
Solubility in Vehicle [1]: ~250 mg/mL in water/aqueous | MTD estimate from potency assessment, sodium salt ([2]; IV bolus single and 7-day studies, corrected for potency): ~745 mg/kg | maximum tolerated dose (MTD) ([2]; single IV bolus, female rats, 7 days observation, dose as sodium salt): 1000 mg/kg | mortality [3]: death of one female

O=C[C@H](O)[C@@H](O)[C@H](O[C@@H]1O[C@H](CO)[C@@H](O)[C@H](O)[C@H]1O)[C@H](O)CO [CB, cellobiose]
histone-induced platelet aggregation [4]: no inhibitory activity | histone-induced platelet degranulation (ATP release) [5]: no inhibitory activity | protection from histone-induced organ damage (LDH, ALT, creatinine) [6]: inactive

Cc1ncc2n1-c1ccc(Cl)cc1C(c1ccccc1F)=NC2 [midazolam]
phase I metabolic stability [7]: almost completely metabolised | phase I metabolic stability [8]: almost completely metabolised | phase I metabolic stability [9]: almost completely metabolised

cellobiose sulfate [CBS]
level relative to starting amount (T=0) over time [10]: drops very rapidly and is almost gone by around 3 months | stability when stored in powder ([11]; 24 months): stable | level in bulk powder ([11]; T0 (months)): 0.23 CAD % | level in bulk powder ([11]; T1): 0.25 CAD % | level in bulk powder ([11]; T3): 0.28 CAD % | level in bulk powder ([11]; T6): 0.32 CAD % | level in bulk powder ([11]; T9): 0.36 CAD % | level in bulk powder ([11]; T12): 0.36 CAD % | level in bulk powder ([11]; T18): 0.36 CAD % | level in bulk powder ([11]; T24): 0.29 CAD % | level in phosphate buffered pH 7.5 formulation ([12]; 2-8° C., T0 (months)): 0.25 CAD % | level in phosphate buffered pH 7.5 formulation ([12]; 2-8° C., T2): 0.03 CAD % | level in phosphate buffered pH 7.5 formulation ([12]; 2-8° C., T3): 0.07 CAD % | level in phosphate buffered pH 7.5 formulation ([12]; 2-8° C., T7): 0.03 CAD % | level in phosphate buffered pH 7.5 formulation ([12]; 2-8° C., T10): 0.04 CAD % | level in phosphate buffered pH 7.5 formulation ([12]; 2-8° C., T13): 0.04 CAD % | level in phosphate buffered pH 7.5 formulation ([12]; 2-8° C., T19): <0.03 CAD % | stability when stored in aqueous buffered solution ([12]; 2-8° C., over 18 months): highly unstable | level reduced to (detection limit) ([12]; aqueous buffered solution, within 3-6 month of storage at 2-8° C.): 0.03 CAD % | inhibition of histone-induced RBC aggregation [13]: inhibit histone-induced RBC aggregation in a dose dependent manner | inhibition of histone-induced RBC lysis under shear [14]: inhibit histone-induced lysis under shear in a dose-dependent manner | histone-induced platelet aggregation [4]: significantly reduced | histone-induced platelet degranulation (ATP release) [5]: significantly reduced | incidence of rapid bilayer rupture ([15]; histones 1 μM + CBS, 3 of 52 bilayers, within 0.3 to 0.5 min): 5.8% | average bilayer lifetime ([15]; histones 1 μM in the presence of CBS 10 μM): 18 ± 4 min and 36 ± 5 min | protection from histone-induced organ damage (LDH, ALT, creatinine) [6]: protects animals from histone-mediated injury | high ALT and creatinine levels (liver and kidney damage) ([16]; CBS treated animals): not seen | mortality ([16]; CBS treatment group vs controls): no mortalities | area of microvascular obstruction [17]: significantly reduced | reduction of myocardial necrosis in the ischemic zone [17]: 50% | histone-mediated deep vein thrombosis [18]: almost totally inhibited

melezitose sulfate
clot formation [19]: No clotting was detected | clot formation ([19]; listed as melezitose): no clot was detected
